Laboratory results: patent US20040242641A1, “(1S,5S)-3-(5,6-dichloro-3-pyridinyl)-3,6-diazabicyclo[3.2.0]heptane is an effective analgesic agent” (priority 2003, published 2004)
Read-outs that look alike come from different tables or passages of the source.

What was measured:
[1] = target: T1, ganglionic-like nicotinic acetylcholine receptor (nAChR) subtype in IMR-32 human neuroblastoma cells (Homo sapiens, UniProt P30926+P32297); assay: IMR-32 FLIPR assay, intracellular Ca2+ changes (side effect liability); assay type: cell-based
T1 construct: host or cells: IMR-32 human neuroblastoma cells
Protocol: Cells were plated out at a density of 1×10^6 cells per well on black-walled, clear-bottomed, 96-well plates (Costar, Cambridge, Mass.) and used approximately 72 hours after plating. All plates were coated with polyethylenimine to aid in the adherence of the cells to the plate.
Changes in the intracellular Ca^2+ content of IMR-32 cells were measured using the calcium chelating dye Fluo-4 (Molecular Probes, Eugene, Oreg.) in conjunction with a Fluorescent Imaging Plate Reader (Molecular Devices, Sunnyvale, Calif.). The cell permeant acetoxymethyl (AM) ester form of […] was prepared to a concentration of 1 mM in anhydrous DMSO and 10% pluronic acid. The dye was then diluted to a final concentration of […] in growth media and placed on the cells for 1 hour at 37° C. Black-walled 96-well plates were utilized to reduce light scattering. The unincorporated dye was removed from the cells by excessive washing with the assay buffer (HETES buffer, 20 mM Hepes, 120 mM NaCl, 5 mM KCl, 1 mM MgCl2, 5 mM glucose, […], and 5 mM CaCl2). […] The intensity of the fluorescence was captured by the CCD camera every second for the first minute following the agonist addition with additional readings every 5 seconds for a total time period of 5 minutes. These images were digitally transferred to an interfaced PC and change in fluorescence intensity processed for each well. The exposure setting of the camera was 0.4 sec with an f-stop setting of […].
The IMR-32 FLIPR assay, described herein, measures cation […] that is mediated through the ganglionic-like nicotinic acetylcholine receptor (nAChR) subtype. Agents that facilitate cation […] of the ganglionic nAChR subtype have been linked to side effect liabilty such as cardiovascular pressor effects.

[2] = tested on: mechanical allodynia in the affected paw of animals that had undergone spinal nerve ligation; assay: Spinal nerve (L5/L6) ligation neuropathic pain model, mechanical allodynia with von Frey filaments; assay type: in vivo, rat; settings: for ED50: Rattus norvegicus, read-out: Analgesic Effect ED50
Description: Male Sprague Dawley rats (80-100 g) were purchased from Charles River (Portage, Mich.). Prior to surgery, animals were group-housed and maintained in a temperature regulated environment (lights on between 7:00 a.m. and 8:00 p.m.). Following nerve ligation surgery, animals were group housed. Rats had access to food and water ad libitum.
The L5 and L6 spinal nerves of anesthesized rats were tightly ligated in the manner described previously by S. H. Kim and J. M. Chung, PAIN 50:355 (1992). Briefly, an incision was made on the dorsal portion of the hip and the muscle was blunt dissected to reveal the spinal processes. The L6 transverse process was removed, and the left L5 and L6 spinal nerves were tightly ligated with 5.0 braided silk suture. The wound was cleaned, the membrane sewn with 4.0 dissolvable Vicryl suture and the skin closed with wound clips.
For the assessment of neuropathic pain, mechanical allodynia in the affected paw of animals that had undergone spinal nerve ligation was evaluated using von Frey filaments. As described previously by S. R. Chaplan, F. W. Bach, J. W. Pogrel, J. M. Chung, and T. L. Yaksh, “Quantitative assessment of tactile allodynia in the rat paw” J. Neurosci. Meth., 53:55-63 (1994) two weeks following surgery, rats were acclimated to the testing box that was constructed of plexiglass with a wire mesh floor to allow access to the planter surface of the hindpaws. Using the Dixons Up-Down method, a baseline level of allodynia was determined to have a withdrawal threshold of <4 g of pressure. […] The EC50 was determined to be 1 μmol/kg.

[3] = target: T2, neuronal nicotinic acetylcholine receptors (Rattus norvegicus, UniProt P09483+P12390); assay: [3H]-cytisine binding to neuronal nicotinic acetylcholine receptors, crude synaptic membranes from whole rat brain; settings: [3H]-CYT 1.25 nM, Cheng and Prusoff correction
T2 construct: crude synaptic membrane preparations from whole rat brain; from tissue; host or cells: whole rat brain, crude synaptic membranes
Protocol: (1S,5S)-3-(5,6-Dichloro-3-pyridinyl)-3,6-diazabicyclo [3.2.0]heptane was subjected to an vitro assay against the nicotinic acetylcholine receptor as described below.
Binding of [^3H]-cytisine ([^3H]-CYT) to neuronal nicotinic acetylcholine receptors was accomplished using crude synaptic membrane preparations from whole rat brain (Pabreza et al., Molecular Pharmacol., 1990, 39:9). Washed membranes were stored at −80° C. prior to use. Frozen aliquots were slowly thawed and resuspended in 20 volumes of buffer (containing: 120 mM NaCl, 5 mM KCl, 2 mM MgCl2, 2 mM CaCl2 and 50 mM Tris-Cl, pH 7.4 @4° C.). After centrifuging at 20,000×g for 15 minutes, the pellets were resuspended in 30 volumes of buffer.
Each test compound was dissolved in water to make 10 mM stock solutions, diluted (1 :100) with buffer (as above), and further taken through seven serial log dilutions to produce test solutions from 10^−5 to 10^−11 M.
Homogenate (containing 125-150 μg protein) was added to triplicate tubes containing the range of concentrations of test compound described above and [^3H]-CYT (1.25 nM) in a final volume of 500 μL. […] The filters are counted in 4 mL of Ecolume® (ICN). Nonspecific binding was determined in the presence of 10 μM (−)-nicotine and values were expressed as a percentage of total binding. […]

[4] = tested on: scopolamine-induced cognitive deficit; assay: Morris water maze, spatial discrimination version, scopolamine-induced cognitive deficit; assay type: in vivo, rat; settings: about 0.001 to about 5 μmol/kg, 30 minutes prior to the test; scopolamine-HBr 0.3 mg/kg i.p.
Protocol: Male, Long-Evans rats, 300-400 g, obtained from Charles River laboratories were used in this study. During two daily habituation sessions, rats are trained to find a visible escape platform in a pool (180 cm diameter and 60 cm high) filled to a depth of 37 cm with water made opaque with powdered milk. Water temperature is maintained at 26° C. On the second day of habituation training, latency to escape measures are obtained in order to assure that animals are assigned to groups without swim speed bias. For spatial discrimination training, two visible platforms, covered in aluminum foil, are present. The platforms remain in the same position (diagonal to each other) through 5 days of training. Only one of the platforms provides escape; the other, made of expanded polystyrene, will not support the animals' weight. Rats receive six trials/day, with start position changed from trial to trial. The number of contacts with the incorrect platform (errors) serves as the dependent variable.
A cognitive deficit, as measured by increased number of errors in the water maze test, is induced by i.p. administration of the muscarinic antagonist scopolamine-HBr (0.3 mg/kg), dosed 15 min prior to each daily discrimination training session (over five days total).

[5] = IMR-32, Table 1, relative to nicotine, read-out: IMR-32 activitiy % efficacy
[6] = Table 1, read-out: IMR-32 activitiy EC50
[7] = intraperitoneally 15 minutes before testing

T1 sequence (P32297 32-505): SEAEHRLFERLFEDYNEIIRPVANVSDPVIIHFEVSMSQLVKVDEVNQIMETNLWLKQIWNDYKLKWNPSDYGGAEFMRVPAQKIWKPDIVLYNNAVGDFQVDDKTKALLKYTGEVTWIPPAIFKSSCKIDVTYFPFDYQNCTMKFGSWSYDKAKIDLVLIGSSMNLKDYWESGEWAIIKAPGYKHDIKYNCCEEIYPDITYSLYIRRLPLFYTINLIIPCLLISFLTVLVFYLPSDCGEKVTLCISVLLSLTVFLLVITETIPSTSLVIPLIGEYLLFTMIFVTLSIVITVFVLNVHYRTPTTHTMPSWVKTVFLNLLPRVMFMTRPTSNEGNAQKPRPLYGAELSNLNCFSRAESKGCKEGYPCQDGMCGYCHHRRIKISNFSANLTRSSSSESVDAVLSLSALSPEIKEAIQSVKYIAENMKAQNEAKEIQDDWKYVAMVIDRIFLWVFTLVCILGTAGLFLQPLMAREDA
T1 sequence (P30926 22-498): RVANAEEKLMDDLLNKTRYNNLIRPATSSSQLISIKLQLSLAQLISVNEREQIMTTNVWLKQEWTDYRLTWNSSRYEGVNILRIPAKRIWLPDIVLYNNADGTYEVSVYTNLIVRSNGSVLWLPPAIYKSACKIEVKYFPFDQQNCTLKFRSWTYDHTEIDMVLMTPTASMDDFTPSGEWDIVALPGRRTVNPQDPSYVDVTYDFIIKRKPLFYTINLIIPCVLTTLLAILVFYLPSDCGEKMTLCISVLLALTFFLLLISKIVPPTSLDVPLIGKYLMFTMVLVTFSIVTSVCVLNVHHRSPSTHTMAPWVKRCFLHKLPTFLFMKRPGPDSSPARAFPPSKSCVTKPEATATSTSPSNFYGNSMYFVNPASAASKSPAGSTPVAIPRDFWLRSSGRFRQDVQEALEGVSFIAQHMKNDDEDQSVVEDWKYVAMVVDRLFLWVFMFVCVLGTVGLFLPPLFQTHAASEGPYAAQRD
T2 sequence (P09483 31-630): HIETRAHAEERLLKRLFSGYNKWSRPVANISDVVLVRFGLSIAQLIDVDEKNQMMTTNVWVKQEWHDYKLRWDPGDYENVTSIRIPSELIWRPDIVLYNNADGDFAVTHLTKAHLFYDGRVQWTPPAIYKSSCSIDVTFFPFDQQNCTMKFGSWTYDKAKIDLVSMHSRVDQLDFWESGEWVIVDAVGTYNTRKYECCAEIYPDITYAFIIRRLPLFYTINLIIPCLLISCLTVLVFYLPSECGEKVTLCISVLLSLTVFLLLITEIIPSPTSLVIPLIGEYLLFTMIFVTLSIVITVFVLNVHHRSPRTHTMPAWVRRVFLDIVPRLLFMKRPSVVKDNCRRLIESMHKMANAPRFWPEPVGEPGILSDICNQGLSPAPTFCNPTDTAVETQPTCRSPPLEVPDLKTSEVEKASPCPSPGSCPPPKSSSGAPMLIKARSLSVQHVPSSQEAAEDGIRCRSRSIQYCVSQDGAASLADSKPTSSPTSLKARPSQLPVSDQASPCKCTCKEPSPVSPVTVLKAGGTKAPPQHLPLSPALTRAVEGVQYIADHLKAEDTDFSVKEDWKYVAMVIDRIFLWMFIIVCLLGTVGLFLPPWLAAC
T2 sequence (P12390 25-500): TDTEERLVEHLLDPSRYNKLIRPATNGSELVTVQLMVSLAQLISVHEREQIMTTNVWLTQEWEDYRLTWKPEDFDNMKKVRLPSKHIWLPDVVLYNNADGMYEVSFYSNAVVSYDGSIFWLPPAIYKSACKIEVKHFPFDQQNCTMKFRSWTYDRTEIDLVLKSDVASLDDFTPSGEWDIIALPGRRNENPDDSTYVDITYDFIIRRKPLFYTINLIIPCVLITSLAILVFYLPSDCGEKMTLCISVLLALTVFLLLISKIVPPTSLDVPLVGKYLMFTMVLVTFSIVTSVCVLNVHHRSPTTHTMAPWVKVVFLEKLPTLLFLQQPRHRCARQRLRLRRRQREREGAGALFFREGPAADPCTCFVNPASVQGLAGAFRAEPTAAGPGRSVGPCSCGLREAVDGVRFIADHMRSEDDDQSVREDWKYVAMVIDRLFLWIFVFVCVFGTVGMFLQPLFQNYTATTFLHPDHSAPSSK

Row | Structure (SMILES) | Emax [1, 5] | EC50 [1, 6] | ED50 [2] | EC50 [1] | other results
1 | c1cncc(N2C[C@@H]3CN[C@@H]3C2)c1 [(1S,5S)-3-(3-pyridinyl)-3,6-diazabicyclo[3.2.0]heptane] | 100% | 23.2 µM | 20 µmol/kg | – | –
2 | Clc1ccc(C2CC3CCC2N3)cn1 (stereo not drawn) [epibatidine] | – | – | – | – | Emax ([1]; IMR-32, read-out: maximum efficacy compared to nicotine): 137%
3 | COc1cncc(N2C[C@@H]3CN[C@@H]3C2)c1 [(1S,5S)-3-(5-methoxy-3-pyridinyl)-3,6-diazabicyclo[3.2.0]heptane] | 147% | – | > 19 µmol/kg | 3.8 µM | –
4 | Clc1cc(N2C[C@@H]3CN[C@@H]3C2)cnc1Cl [(1S,5S)-3-(5,6-dichloro-3-pyridinyl)-3,6-diazabicyclo[3.2.0]heptane] | 73% | – | – | – | Emax ([1]; IMR-32, relative to 100 μM nicotine (100%), read-out: maximum efficacy compared to nicotine): 73%; EC50 ([1]; percent maximal intensity relative to 100 μM nicotine, read-out: EC50 (calcium, IMR-32 cells)): 5.5 µM; Ki [3]: 0.0001 µM; ED50 ([2]; Table 1): 1 µmol/kg; ED50 (increase in withdrawal threshold) [2, 7]: 1 µmol/kg; effect on withdrawal threshold [2, 7]: dose-dependent increase in the withdrawal threshold; maximum effect on withdrawal threshold ([2]; intraperitoneally 15 minutes before testing, baseline threshold <4 g): 15 g; effect on scopolamine-induced cognitive deficit in water maze (errors) [4]: reversed the cognitive deficit and normalized the performance of the animals in the water maze
5 | Cc1cc(N2C[C@@H]3CN[C@@H]3C2)cnc1Cl [(1S,5S)-3-(6-chloro-5-methyl-3-pyridinyl)-3,6-diazabicyclo[3.2.0]heptane] | 94% | – | > 19 µmol/kg | 3.4 µM | –
6 | Clc1cc(N2C[C@@H]3CN[C@@H]3C2)cnc1Br [(1S,5S)-3-(6-bromo-5-chloro-3-pyridinyl)-3,6-diazabicyclo[3.2.0]heptane] | 81% | – | > 19 µmol/kg | 1.4 µM | –
7 | N#Cc1cc(N2C[C@@H]3CN[C@@H]3C2)cnc1Br [2-bromo-5-[(1S,5S)-3,6-diazabicyclo[3.2.0]hept-3-yl]nicotinonitrile] | 103% | – | > 19 µmol/kg | 1.2 µM | –
8 | Clc1ccc(N2C[C@@H]3CN[C@@H]3C2)cn1 [(1S,5S)-3-(6-chloro-3-pyridinyl)-3,6-diazabicyclo[3.2.0]heptane] | 102% | – | 11 µmol/kg | 1.4 µM | –
9 | Clc1cc(N2C[C@H]3CN[C@H]3C2)cnc1Cl [(1R,5R)-3-(5,6-dichloro-3-pyridinyl)-3,6-diazabicyclo[3.2.0]heptane] | 106% | 0.078 µM | – | – | –
10 | N#Cc1cncc(N2C[C@@H]3CN[C@@H]3C2)c1 [5-[(1S,5S)-3,6-diazabicyclo[3.2.0]hept-3-yl]nicotinonitrile] | 85% | 19.9 µM | > 19 µmol/kg | – | –
